What follows are compounds tested against T1, vanilloid receptor (Rattus norvegicus, UniProt O35433) (assay: 45Ca influx test (calcium uptake) in primary cultured DRG neurons, capsaicin 0.5 μM). Details: rat DRG neurons, capsaicin 0.5 μM, 45Ca; read-out: Antagonist Calcium Uptake Test (IC50).
T1 construct: DRG nerve cells from the primary culture of 2 days were equilibrated by washing 4 times; endogenous in cells; host or cells: primary culture of dorsal root ganglion neurons from neonatal SD rats
T1 sequence (O35433 whole entry): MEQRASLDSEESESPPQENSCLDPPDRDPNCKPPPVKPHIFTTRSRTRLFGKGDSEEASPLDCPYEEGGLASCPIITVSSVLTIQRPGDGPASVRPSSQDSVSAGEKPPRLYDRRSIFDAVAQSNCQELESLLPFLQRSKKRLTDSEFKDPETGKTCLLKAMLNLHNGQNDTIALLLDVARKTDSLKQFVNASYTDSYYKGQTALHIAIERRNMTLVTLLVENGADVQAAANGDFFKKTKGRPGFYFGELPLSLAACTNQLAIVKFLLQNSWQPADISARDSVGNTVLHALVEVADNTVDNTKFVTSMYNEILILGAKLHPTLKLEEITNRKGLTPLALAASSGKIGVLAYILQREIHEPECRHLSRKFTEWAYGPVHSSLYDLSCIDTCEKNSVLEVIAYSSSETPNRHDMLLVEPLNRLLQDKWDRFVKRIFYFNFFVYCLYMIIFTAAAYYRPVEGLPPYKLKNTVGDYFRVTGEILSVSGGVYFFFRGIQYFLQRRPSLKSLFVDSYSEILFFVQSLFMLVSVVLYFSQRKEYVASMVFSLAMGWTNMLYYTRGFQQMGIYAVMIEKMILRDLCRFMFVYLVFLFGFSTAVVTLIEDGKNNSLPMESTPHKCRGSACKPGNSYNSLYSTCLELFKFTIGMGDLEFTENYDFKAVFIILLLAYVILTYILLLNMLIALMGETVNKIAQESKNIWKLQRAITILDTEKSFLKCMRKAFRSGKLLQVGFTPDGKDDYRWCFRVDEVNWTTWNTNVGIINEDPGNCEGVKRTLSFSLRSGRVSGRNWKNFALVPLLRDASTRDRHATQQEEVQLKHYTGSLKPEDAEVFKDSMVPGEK
Assay type: cell-based
Protocol: 1) Separation of Spinal Dorsal Root Ganglia (DRG) in Newborn Rats and Primary Culture Thereof
Neonatal (2-3 day old or younger than 2-3 day old) SD rats were put in ice for 5 minutes to anesthetize and disinfected with 70% ethanol. […] The DRG were incubated sequentially at 37° C. for 30 mins in 200 U/ml collagenase and 2.5 mg/ml trypsin, separately. The ganglia were washed twice with DME/F12 medium supplemented with 10% horse serum, triturated through a fire-polished Pasteur pipette, filtered through Nitex 80 membrane to obtain single cell suspension and the suspension was washed once more. This was subjected to centrifugation, then resuspended in cell culture medium at certain level of cell density. As the cell culture medium, DME/F12 medium supplemented with 10% horse serum was diluted with identical medium conditioned by C6 glioma cells 2 days on a confluent monolayer (1:1), and NGF (Nerve Growth Factor) was added to adjust 200 ng/ml as final concentration. After the cells were grown 2 days in medium where cytosine arabinoside (Ara-C, 100 μM) was added to kill dividing nonneuronal cells, medium was changed to one without Ara-C. The resuspended cells were plated at a density of 1500-2000 neurons/well onto Terasaki plates previously coated with 10 μg/ml poly-D-ornithine.
2) ^45Ca Influx Experiments
DRG nerve cells from the primary culture of 2 days were equilibrated by washing 4 times with HEPES (10 mM, pH 7.4)-buffered Ca^2+, Mg^2+-free HBSS (H-HBSS). The solution in each well was removed from the individual well. Medium containing the test compound plus capsaicin (final concentration 0.5 μM) and ^45Ca (final concentration 10 μCi/ml) in H-HBSS was added to each well and incubated at room temperature for 10 mins. Terasaki plates were washed five times with H-HBSS and dried at room temperature. To each well, 0.3% SDS (10 μl) was added to elute ^45Ca. After the addition of scintillation cocktail of into each well, the amount of ^45Ca influx into neuron was measured by counting radioactivity.

SMILES | IC50 [nM]
CCNc1cc(F)ccc1/C=C/C(=O)NCc1cc(F)c(NS(C)(=O)=O)c(F)c1 [Example 43, N-(3,5-Difluoro-4-methanesulfonylaminobenzyl)-3-(4-fluoro-2-ethylaminophenyl)acrylamide] | 320
CCNc1cc(C(F)(F)F)ccc1/C=C/C(=O)NCc1cc(C)c(NS(C)(=O)=O)c(F)c1 [Example 19, 3-(2-Ethylamino-4-trifluoromethyl-phenyl)-N-(3-fluoro-4-methanesulfonylamino-5-methyl-benzyl)-acrylamide] | 160
CCCOc1cc(F)ccc1/C=C/C(=O)NCc1cc(F)c(NS(C)(=O)=O)c(F)c1 [Example 28, N-(3,5-Difluoro-4-methanesulfonylamino-benzyl)-3-(4-fluoro-2-propoxy-phenyl)-acrylamide] | 1100
CCCNc1cc(C(F)(F)F)ccc1CCC(=O)NCc1cc(F)c(NS(C)(=O)=O)c(F)c1 [Example 56, N-(3,5-difluoro-4-methanesulfonylamino-benzyl)-3-(2-propylamino-4-trifluoromethyl-phenyl)-propionamide] | 350
C[C@@H](NC(=O)/C=C/c1ccc(C(F)(F)F)cc1OCC1CCCCC1)c1cc(F)c(NS(C)(=O)=O)c(F)c1 [Example 50, (R)-3-(2-Cyclohexylmethoxy-4-trifluoromethyl-phenyl)-N-[1-(3,5-difluoro-4-methanesulfonylamino-phenyl)-ethyl]-acrylamide] | 210
CC(C)Oc1cc(C(F)(F)F)ccc1/C=C/C(=O)NCc1cc(F)c(NS(C)(=O)=O)c(F)c1 [Example 20, N-(3,5-Difluoro-4-methanesulfonylamino-benzyl)-3-(2-isopropoxy-4-trifluoromethyl-phenyl)-acrylamide] | 150
CCCCOc1cc(C(F)(F)F)ccc1/C=C/C(=O)NCc1cc(F)c(NS(C)(=O)=O)c(F)c1 [Example 32, 3-(2-Butoxy-4-trifluoromethyl-phenyl)-N-(3,5-difluoro-4-methanesulfonylamino-benzyl)-acrylamide] | 2200
CCCNc1cc(F)ccc1/C=C/C(=O)NCc1cc(F)c(NS(C)(=O)=O)c(F)c1 [Example 30] | 410
CCOc1cc(C(F)(F)F)ccc1/C=C/C(=O)N[C@H](C)c1cc(F)c(NS(C)(=O)=O)c(F)c1 [Example 7, (R)—N-[1-(3,5-Difluoro-4-methanesulfonylamino-phenyl)-ethyl]-3-(2-ethoxy-4-trifluoromethyl-phenyl)-acrylamide] | 110
C[C@@H](NC(=O)/C=C/c1ccc(C(F)(F)F)cc1N1CCCCC1)c1cc(F)c(NS(C)(=O)=O)c(F)c1 [Example 52] | 340
CCCOc1cc(F)ccc1/C=C/C(=O)N[C@H](C)c1cc(F)c(NS(C)(=O)=O)c(F)c1 [Example 27, (R)—N-[1-(3,5-Difluoro-4-methanesulfonylamino-phenyl)-ethyl]-3-(4-fluoro-2-propoxy-phenyl)-acrylamide] | 170
CCC(C)Oc1cc(F)ccc1/C=C/C(=O)N[C@H](C)c1cc(F)c(NS(C)(=O)=O)c(F)c1 (stereo partly drawn) [Example 40, (R)-3-(2-sec-Butoxy-4-fluoro-phenyl)-N-[1-(3,5-difluoro-4-methanesulfonylamino-phenyl)-ethyl]-acrylamide] | 100
CCC(C)Oc1cc(C(F)(F)F)ccc1/C=C/C(=O)N[C@H](C)c1cc(F)c(NS(C)(=O)=O)c(F)c1 (stereo partly drawn) [Example 39, (R)-3-(2-sec-Butoxy-4-trifluoromethyl-phenyl)-N-[1-(3,5-difluoro-4-methanesulfonylamino-phenyl)-ethyl]-acrylamide] | 22
CCCc1cc(C(F)(F)F)ccc1/C=C/C(=O)N[C@H](C)c1ccc(NS(C)(=O)=O)c(F)c1 [Example 44] | 91
CCCCc1cc(C(F)(F)F)cc(CCCC)c1/C=C/C(=O)N[C@H](C)c1cc(F)c(NS(C)(=O)=O)c(F)c1 [Example 16, (R)-3-(2,6-Dibutyl-4-trifluoromethyl-phenyl)-N-[1-(3,5-difluoro-4-methanesulfonylamino-phenyl)-ethyl]-acrylamide] | 220
CCNc1cc(C(F)(F)F)ccc1/C=C/C(=O)NCc1cc(F)c(NS(C)(=O)=O)c(F)c1 [Example 18, N-(3,5-Difluoro-4-methanesulfonylamino-benzyl)-3-(2-ethylamino-4-trifluoromethyl-phenyl)-acrylamide] | 83
CCCc1cc(F)ccc1/C=C/C(=O)N[C@H](C)c1cc(F)c(NS(C)(=O)=O)c(F)c1 [Example 53, (R)—N-[1-(3,5-Difluoro-4-methanesulfonylamino-phenyl)-ethyl]-3-(4-fluoro-2-propyl-phenyl)-acrylamide] | 170
CCCCc1cc(C(F)(F)F)ccc1/C=C/C(=O)N[C@H](C)c1ccc(NS(C)(=O)=O)c(F)c1 [Example 36, (R)-3-(2-Butyl-4-trifluoromethyl-phenyl)-N-[1-(3-fluoro-4-methanesulfonylamino-phenyl)-ethyl]-acrylamide] | 46
CCCCOc1cc(F)ccc1/C=C/C(=O)N[C@H](C)c1cc(F)c(NS(C)(=O)=O)c(F)c1 [Example 33, (R)-3-(2-Butoxy-4-fluoro-phenyl)-N-[1-(3,5-difluoro-4-methanesulfonylamino-phenyl)-ethyl]-acrylamide] | 150
CCCCNc1cc(F)ccc1/C=C/C(=O)N[C@H](C)c1cc(F)c(NS(C)(=O)=O)c(F)c1 [Example 45, (R)-3-(2-Butylamino-4-fluoro-phenyl)-N-[1-(3,5-difluoro-4-methanesulfonylamino-phenyl)-ethyl]-acrylamide] | 65
CCCc1cc(C(F)(F)F)ccc1/C=C(\C)C(=O)N[C@H](C)c1cc(F)c(NS(C)(=O)=O)c(F)c1 [Example 48, (R)—N-[1-(3,5-Difluoro-4-methanesulfonylamino-phenyl)-ethyl]-2-methyl-3-(2-propyl-4-trifluoromethyl-phenyl)-acrylamide] | 530
CS(=O)(=O)Nc1c(F)cc(CNC(=O)/C=C/c2ccc(C(F)(F)F)cc2N2CCCCC2)cc1F [Example 51, N-(3,5-Difluoro-4-methanesulfonylamino-benzyl)-3-(2-piperidin-1-yl-4-trifluoromethyl-phenyl)-acrylamide] | 3300
C#Cc1cc(CNC(=O)/C=C/c2ccc(C(F)(F)F)cc2OCCC)cc(F)c1NS(C)(=O)=O [Example 14, N-(3-Ethynyl-5-fluoro-4-methanesulfonylamino-benzyl)-3-(2-propoxy-4-trifluoromethyl-phenyl)-acrylamide] | 240
CCCNc1cc(C(F)(F)F)ccc1CCC(=O)N[C@H](C)c1cc(F)c(NS(C)(=O)=O)c(F)c1 [Example 55, (R)—N-[1-(3,5-difluoro-4-methanesulfonylamino-phenyl)-ethyl]-3-(2-propylamino-4-trifluoromethyl-phenyl)-propionamide] | 190
CCCNc1cc(C(F)(F)F)ccc1/C=C/C(=O)NCc1cc(F)c(NS(C)(=O)=O)c(C#N)c1 [Example 13, N-(3-Cyano-5-fluoro-4-methanesulfonylamino-benzyl)-3-(2-propylamino-4-trifluoromethyl-phenyl)-acrylamide] | 120
CC(C)Cc1cc(C(F)(F)F)ccc1/C=C/C(=O)N[C@H](C)c1cc(F)c(NS(C)(=O)=O)c(F)c1 [Example 47, (R)—N-[1-(3,5-Difluoro-4-methanesulfonylamino-phenyl)-ethyl]-3-(2-isobutyl-4-trifluoromethyl-phenyl)-acrylamide] | 94
